Entries after “also recorded” stand apart in the source; their conditions may differ. Like-named read-outs stand apart in the source and are kept apart here.
What was measured:
[1] = tested on: human lung fibroblast MRC-5 cells; assay: Cellular toxicity (MTT assay) in MRC-5 cells; assay type: cell-based; details: for EC50: Homo sapiens, MRC5, MTT assay, 72 h at 37 °C; for SI (EC50 MRC-5/EC50 parasite): Selectivity Index
[2] = tested on: human solid tumor cell lines A549, SW1573 (lung), HBL-100, T-47D (breast), HeLa (cervix), WiDr (colon); assay: Antiproliferative activity (SRB assay) against a panel of six human solid tumor cell lines; assay type: cell-based; details: for GI50: read-out: GI50 (concentration to achieve 50% growth inhibition), 48 h, tested 1 to 100 μM, only values below 100 μM significant; for GI50 (concentration to achieve 50% growth inhibition): 48 h, tested 1 to 100 μM, only values below 100 μM significant
Method: The antiproliferative activity of all the sp^2-iminosugar C-glycosides (1–12) was evaluated against a panel of six representative human solid tumor cell lines including lung (A549 and SW1573), breast (HBL-100, T-47D), cervix (HeLa), and colon (WiDr).
All reagents were used as purchased from commercial suppliers without further purification. The human solid tumor cell lines A549 (lung), HBL-100 (breast), HeLa (cervix), SW1573 (lung), T-47D (breast), and WiDr (colon) were used in this study. These cell lines were a kind gift from Prof. G. J. Peters (VU Medical Center, Amsterdam, The Netherlands).
Cells were inoculated onto 96-well microtiter plates in a volume of 100 μL per well at densities of 2500 (A549, HBL-100, HeLa, and SW1573) and 5000 (T-47D and WiDr) cells per well, based on their doubling times. Compounds were initially dissolved in DMSO at 400 times the desired final maximum test concentration. Control cells were exposed to an equivalent concentration of DMSO (0.25% v/v, negative control). Each agent was tested in triplicate at different dilutions in the range of 1 to 100 μM. The drug treatment started on day 1 after plating. Drug incubation times were 48 h, after which cells were precipitated with 25 μL ice-cold TCA (50% w/v) and fixed for 60 min at 4 °C. Then the SRB assay was performed. The optical density (OD) of each well was measured at 530 nm, using BioTek’s PowerWave XS Absorbance Microplate Reader. Values were corrected for background OD from wells only containing medium. The antiproliferative activity for each compound, expressed as GI50 values, was calculated according to NCI formulas.

α-Glcase (Yeast Maltase) = target: T1, α-Glcase (Yeast Maltase) (Saccharomyces cerevisiae, UniProt P53341); assay: Glycosidase inhibition (Ki), yeast maltase α-glucosidase; assay type: biochemical
T1 construct: purchased
Excerpt: The inhibitory properties of the new sp^2-IGLs 1–12 and the α-C-allyl ONJ and OGJ glycosides 15, and 24 were examined against a panel of commercial glycosidases that included the α-glucosidases maltase (Saccharomyces cerevisiae) and amyloglucosidase (Aspergillus niger), the β-glucosidases from almonds and bovine liver, α-galactosidase from green coffee beans, β-galactosidase from Escherichia coli, α-mannosidase from Jack beans, and β-mannosidase from Helix pomatia. The corresponding inhibition constant (Ki) values are collected in Table 1.
Inhibition constant (Ki) values were determined by spectrophotometrically measuring the residual hydrolytic activities of the glycosidases against the respective o- (for β-galactosidase from E. coli) or p-nitrophenyl α- or β-D-glycopyranoside (for other glycosidases) in the presence of the iminosugars. Each assay was performed in phosphate buffer or phosphate-citrate buffer (for α- or β-mannosidase and amyloglucosidase) at the optimal pH for the enzymes. The reactions were initiated by addition of the enzyme to a solution of the substrate in the absence or presence of various inhibitor concentrations. The mixture was incubated for 10–30 min at 37 °C or 55 °C (for amyloglucosidase) and the reaction was quenched by addition of 1 M Na2CO3. Reaction times were appropriate to obtain 10–20% conversion of the substrate in order to achieve linear rates. The absorbance of the resulting mixture was determined at 405 nm. Approximate value of Ki was determined from the slope of Dixon plots using a fixed concentration of substrate (around the Km value for the different glycosidases) and various concentrations of inhibitor. Full Ki determinations and enzyme inhibition mode were determined from the slope of Lineweaver–Burk plots and double reciprocal analysis. Representative examples of Dixon and Lineweaver–Burk plots are shown in the Supplementary materials.

[3] = tested on: intracellular amastigotes of Leishmania donovani MHOM/ET/67/HU3 line; assay: Susceptibility of intracellular Leishmania amastigotes (luciferase assay); assay type: cell-based; details: L. donovani in THP-1 macrophages, 72 h at 37 °C, threshold 20 μM
Method: The leishmanicidal activity of all the synthesized sp^2-iminosugar C-glycosides (1–12) was evaluated against intracellular amastigotes of Leishmania donovani MHOM/ET/67/HU3 line with luciferase gene integrated into the parasite genome. […] A strong influence of the nature of the lipid chain α-linked to the pseudoanomeric position of the bicyclic core in the sp^2-IGLs was inferred from the corresponding data. […] The longer-chain sp^2-IGLs 2 and 8 were over the 20 μM concentration threshold in this assay. In the sulfone series, the results evidenced some disparity between the ONJ and OGJ epimers.
Macrophage-differentiated THP-1 cells, which are considered a suitable model for human macrophages, were plated at a density of 3 × 10^4 or 3 × 10^5 macrophages/well in 96-well white polystyrene microplates or 24-well tissue culture chamber slides, respectively, and were infected at a macrophage/parasite ratio of 1:10 with L. donovani promastigotes. Twenty-four hours after infection at 35 °C and 5% CO2, extracellular parasites were removed by washing with serum-free medium. Infected cell cultures were then incubated at different compound concentrations in RPMI 1640 medium plus 10% iFBS at 37 °C with 5% CO2 for 72 h. To determine the susceptibility of L. donovani LUC amastigotes, infected macrophages maintained in 96-well plates were lysed and then luminescence intensity was measured as indicative of the intracellular parasite growth, using the Luciferase Assay System Kit (Promega, Madison, Wis.) according to the instructions of the supplier. To determine the susceptibility of L. donovani HU3 amastigotes, infected macrophages maintained in 24-well plates were fixed for 30 min at 4 °C with 2.5% paraformaldehyde phosphate-buffered saline (PBS; 1.2 mM KH2PO4, 8.1 mM Na2HPO4, 130 mM NaCl, and 2.6 mM KCl adjusted to pH 7) and permeabilized with 0.1% Triton X-100 in PBS for 30 min. Intracellular parasites and macrophages were detected by nuclear staining with ProLong® Gold antifade reagent plus DAPI (Invitrogen). The percentage infection and mean number of amastigotes from infected macrophages were determined with 200 macrophages/well.

THP-1 cells = assay: Cellular toxicity (MTT assay) in THP-1 cells; assay type: cell-based, human; details: for EC50: Homo sapiens, THP-1, MTT assay, 72 h at 37 °C; for SI (EC50 THP-1/EC50 parasite): Selectivity Index
Method: Human myelomonocytic cell line THP-1 was grown at 37 °C and 5% CO2 in RPMI-1640 supplemented with 10% iFBS, 2 mM […], 100 U/mL penicillin, and 100 μg/mL streptomycin; 3 × 10^4 cells/well in 96-well plates were differentiated to macrophages with 20 ng/mL of PMA treatment for 48 h followed by 24 h of culture in fresh medium. Cellular toxicity of all compounds was determined using the colorimetric MTT-based assay after incubation at 37 °C for 72 h in the presence of increasing concentrations of compounds [71].

[4] = mean ± SD, three independent determinations, competitive inhibition
[5] = mean ± SD, three independent determinations, competitive inhibition, read-out: Ki, α-Glcase (Yeast Maltase)

T1 sequence (P53341 whole entry): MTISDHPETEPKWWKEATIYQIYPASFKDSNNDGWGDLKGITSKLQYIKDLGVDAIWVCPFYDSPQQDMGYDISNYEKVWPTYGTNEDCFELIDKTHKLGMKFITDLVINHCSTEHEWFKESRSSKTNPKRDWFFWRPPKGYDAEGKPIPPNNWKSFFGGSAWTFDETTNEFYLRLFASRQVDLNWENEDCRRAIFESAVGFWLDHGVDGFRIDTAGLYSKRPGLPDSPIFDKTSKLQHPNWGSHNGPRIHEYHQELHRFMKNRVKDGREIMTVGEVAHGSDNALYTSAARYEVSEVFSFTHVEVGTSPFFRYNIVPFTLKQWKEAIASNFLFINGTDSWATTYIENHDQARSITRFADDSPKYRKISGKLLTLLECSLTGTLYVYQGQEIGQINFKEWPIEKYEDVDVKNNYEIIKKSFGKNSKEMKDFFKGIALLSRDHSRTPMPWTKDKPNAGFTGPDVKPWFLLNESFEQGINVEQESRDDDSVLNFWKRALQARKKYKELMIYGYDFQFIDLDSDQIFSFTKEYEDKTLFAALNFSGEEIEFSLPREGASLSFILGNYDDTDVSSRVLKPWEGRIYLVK

Row | SMILES | EC50 [1] | SI (EC50 MRC-5/EC50 parasite) [1] | GI50 [2] | Ki, α-Glcase (Yeast Maltase) (α-Glcase (Yeast Maltase); [4]) | EC50 [3] | EC50 (THP-1 cells) | GI50 (concentration to achieve 50% growth inhibition) [2] | Ki (α-Glcase (Yeast Maltase)) | Ki (α-Glcase (Yeast Maltase); [5]) | SI (EC50 THP-1/EC50 parasite) (THP-1 cells)
1 | CCCCCCCCS(=O)(=O)CCC[C@@H]1[C@H](O)[C@@H](O)[C@@H](O)[C@H]2COC(=O)N12 [Compound 10, (1R)-1-[3-(Octylsulfonyl)propyl]-5N,6O-oxomethylidene-1-deoxygalactonojirimycin] | 185 ± 21.2 µM | 13.40 | > 100 µM | n.i. | 13.8 ± 1.72 µM | > 200 µM | – | – | – | –
2 | CC(C)(C)OC(=O)NCCSCCC[C@@H]1[C@H](O)[C@@H](O)[C@H](O)[C@H]2COC(=O)N12 [Compound 3, (1R)-1-[3-(N-tert-Butoxycarbonylaminoethylthio)propyl]-5N,6O-oxomethylidene-1-deoxynojirimycin] | 134 ± 6.02 µM | 8.95 | > 100 µM | – | 15 ± 1.28 µM | > 200 µM | did not show any significant antiproliferative activity; also recorded: out of range; also recorded: did not display significant antiproliferative activity | 0.28 ± 0.02 µM | – | –
3 | CCCCCCCCCCCCS(=O)(=O)CCC[C@@H]1[C@H](O)[C@@H](O)[C@@H](O)[C@H]2COC(=O)N12 [Compound 11, (1R)-1-[3-(Dodecylsulfonyl)propyl]-5N,6O-oxomethylidene-1-deoxygalactonojirimycin] | 162 ± 20.2 µM | < 8.10 | 26 to 82 µM | n.i. | > 20 µM | > 200 µM | – | – | – | –
4 | CCCCCCCCS(=O)(=O)CCC[C@@H]1[C@H](O)[C@@H](O)[C@H](O)[C@H]2COC(=O)N12 [Compound 4, (1R)-1-[3-(Octylsulfonyl)propyl]-5N,6O-oxomethylidene-1-deoxynojirimycin] | 189 ± 15.6 µM | < 9.45 | > 100 µM | – | > 20 µM | > 200 µM | – | – | 2.6 ± 0.3 µM | –
5 | CC(C)(C)OC(=O)NCCS(=O)(=O)CCC[C@@H]1[C@H](O)[C@@H](O)[C@H](O)[C@H]2COC(=O)N12 [Compound 6, (1R)-1-[3-(N-tert-Butoxycarbonylaminoethylsulfonyl)propyl]-5N,6O-oxomethylidene-1-deoxynojirimycin] | 155 ± 3.1 µM | < 7.76 | > 100 µM | – | > 20 µM | > 200 µM | did not show any significant antiproliferative activity | – | 0.75 ± 0.02 µM | –
6 | CCCCCCCCCCCCS(=O)(=O)CCC[C@@H]1[C@H](O)[C@@H](O)[C@H](O)[C@H]2COC(=O)N12 [Compound 5, (1R)-1-[3-(Dodecylsulfonyl)propyl]-5N,6O-oxomethylidene-1-deoxynojirimycin] | 71.5 ± 3.75 µM | 6.25 | 26 to 82 µM | – | 11.4 ± 5.08 µM | 100 ± 10.9 µM | – | – | 2.5 ± 0.2 µM | 8.78
7 | CCCCCCCCCCCCSCCC[C@@H]1[C@H](O)[C@@H](O)[C@H](O)[C@H]2COC(=O)N12 [Compound 2, (1R)-1-[3-(Dodecylthio)propyl]-5N,6O-oxomethylidene-1-deoxynojirimycin] | 19.9 ± 2.76 µM | < 1 | 9.6 to 19 µM | nanomolar competitive inhibitor | > 20 µM | 72.2 ± 4.18 µM | – | – | 0.74 ± 0.03 µM | < 3.61
8 | CCCCCCCCSCCC[C@@H]1[C@H](O)[C@@H](O)[C@H](O)[C@H]2COC(=O)N12 [Compound 1, (1R)-1-[3-(Octylthio)propyl)-5N,6O-oxomethylidene-1-deoxynojirimycin] | 32.2 ± 1.03 µM | 4.19 | 14 to 54 µM | – | 7.68 ± 0.29 µM | 131 ± 4.29 µM | – | – | 0.34 ± 0.02 µM | 17.06
9 | C[C@@H]1[C@H](O)[C@@H](C)/C=C/C=C/C=C/C=C/C=C/C=C/C=C/[C@H](O[C@@H]2O[C@H](C)[C@@H](O)[C@H](N)[C@@H]2O)C[C@@H]2O[C@](O)(C[C@@H](O)C[C@@H](O)[C@H](O)CC[C@@H](O)C[C@@H](O)CC(=O)O[C@H]1C)C[C@H](O)[C@H]2C(=O)O [AmB, amphotericin B, reference compound] | 16.9 ± 2.44 µM | 112.87 | – | – | 0.15 ± 0.01 µM | 20.1 ± 4.43 µM | – | – | – | 133.80

From article PMC6720825, “Thiol-ene "Click" Synthesis and Pharmacological Evaluation of C-Glycoside sp^2-Iminosugar Glycolipids” (Molecules, 2019)
